Where two headings read alike, the source gives them in different places. Peptide text beside a SMILES is read from it. * marks the point of attachment. X1 = OCC1OC(*)C(O)C(O)C1O; Cbz = O=C(OCc1ccccc1)*
B1: recombinant α1,2-ManT: water-dispersible recombinant α1,2-mannosyltransferase catalytic domain, residues about 31-442 of the S. cerevisiae enzyme, expressed in E. coli (protein)
chain: RTQQYIPSSISAAFDFTSGSISPEQQVISEENDAKKLEQSALNSEASEDSEAMDEESKALKAAAEKADAPIDTKTTMDYITPSFANKAGKPKACYVTLVRNKELKGLLSSIKYVENKINKKFPYPWVFLNDEPFTEEFKEAVTKAVSSEVKFGILPKEHWSYPEWINQTKAAEIRADAATKYIYGGSESYRHMCRYQSGFFWRHELLEEYDWYWRVEPDIKLYCDINYDVFKWMQENEKVYGFTVSIHEYEVTIPTLWQTSMDFIKKNPEYLDENNLMSFLSNDNGKTYNLCHFWSNFEIANLNLWRSPAYREYFDTLDHQGGFFYERWGDAPVHSIAAALFLPKDKIHYFSDIGYHHPPYDNCPLDKEVYNSNNCECDQGNDFTFQGYSCGKEYYDAQGLVKPKNWKKFRE

Key:
[1] = molecular target: T1, Recombinant α1,2-Mannosyltransferase (Saccharomyces cerevisiae, UniProt P27809); test: Substrate specificity and enzyme kinetics of the mannosyltransfer reaction (GDP-Man + acceptor); type: biochemical; settings: for substrate (acceptor) quality in words: 150 mM substrate, 3.3 mM GDP-Man; for Vrelative: calculated as the ratio of Vmax, ManαOMe = 1.0
T1 construct: made in house; host or cells: E. coli XL1-Blue, periplasmic fraction
T1 sequence (P27809 31-442): B1 chain
Method: GDP-Man (^14C) (10 mM, 10 mL), α-methyl mannopyranoside (500 mM, 10 μL) and the enzyme solution (10 μL) were mixed in a buffer containing 50 mM HEPES (pH 7.2), 0.1 percent Triton and 10 mM MnCl2. The mixture was incubated at 30.0° C. for one hour. The unreacted GDP-mannose was removed by adding QAE-Sephadex (400 μL) to the solution. After the resin was removed by centrifugation, the radioactivity of the solution was counted in 10 mL of scintillation fluid. Controls were carried out by omitting the acceptor or the enzyme. The substrate specificity was determined in a 30 μL assay solution containing 150 mM substrate, 3.3 mM GDP-Man, overproduced α1,2-ManT, 50 mM HEPES (pH 7.2), 0.1 percent Triton and 10 mM MnCl2. The mixture was incubated at 30° C. for 1 hour and the formation of product was determined by the radioactivity assay. Initial velocities were measured as described in the enzyme assay at various concentrations of acceptors for kinetic studies. From the Lineweaver-Burk plots of the data, Km and Vmax were determined.

[2] = tested on: native α1,2-mannosyltransferase; settings: native enzyme, literature value for comparison; cited from earlier work
[3] = α1,2-Mannosyltransferase activity assay; type: biochemical; settings: after Superose and Mono Q FPLC purification; one unit transfers 1.0 μmol mannose per minute at 30° C.
Method: GDP-Man (^14C) (10 mM, 10 mL), α-methyl mannopyranoside (500 mM, 10 μL) and the enzyme solution (10 μL) were mixed in a buffer containing 50 mM HEPES (pH 7.2), 0.1 percent Triton and 10 mM MnCl2. The mixture was incubated at 30.0° C. for one hour. The unreacted GDP-mannose was removed by adding QAE-Sephadex (400 μL) to the solution. After the resin was removed by centrifugation, the radioactivity of the solution was counted in 10 mL of scintillation fluid. Controls were carried out by omitting the acceptor or the enzyme.

[4] = Organic solvent effect study on the mannosyltransfer reaction; type: biochemical
Method: GDP-Man (^14C) (10 mM, 10 μL) and methyl mannopyranoside (500 mM, 10 μL) were mixed with a certain volume of an organic solvent and H2O to achieve the desired organic solvent concentration. The enzyme (10 μL) was then added to the mixture. The solution was incubated at 30.0° C. for 1 hour. The enzyme activity was measured as described in the enzyme assay section.

[5] = Enzyme stability study; type: physicochemical; settings: after four days at 20° C. in 100 mM Tris-HCl, 5 mM MgCl2 buffer, pH 7.4
Method: The enzyme was incubated at room temperature in 100 mM Tris-HCl buffer, 5 mM MgCl2, pH 7.4, containing 0.5 mM dithiothreitol. At different time intervals, 10 μL aliquots were taken and assayed for mannosyltransferase activity as described above.

[6] = acceptor substrate of recombinant enzyme, read-out: Km value
[7] = acceptor with GDP-Man, Lineweaver-Burk plots, 30° C., pH 7.2, read-out: Km (acceptor)

Row | Molecule | substrate (acceptor) quality in words ([1]; recombinant α1,2-ManT) | Vrelative ([1]; acceptor with GDP-Man) | also measured
1 | OC[C@H]1NC[C@@H](O)[C@@H](O)[C@@H]1O [1-deoxymannojirimycin, reference compound] | neither a substrate | – | inhibitor of α1,2-ManT in words ([1]; recombinant α1,2-ManT): nor an inhibitor
2 | CO[C@H]1O[C@H](CO)[C@@H](O)[C@H](O)[C@@H]1O [Compound 1, α-methylmannopyranoside, reference compound] | – | 1.0 | Km [1, 6]: 57 mM; Km [1, 7]: 57 mM
3 | O=C[C@@H](O)[C@@H](O)[C@H](O)[C@H](O)CO [Compound 2, mannose] | – | 0.46 | Km (acceptor) ([1]; acceptor with GDP-Man, Lineweaver-Burk plots, 30° C., pH 7.2): 193 mMO; Km [2]: 100 mM
4 | CO[C@H]1O[C@H](CO)[C@@H](O)[C@H](O)[C@@H]1O[C@H]1O[C@H](CO)[C@@H](O)[C@H](O)[C@@H]1O [Compound 3, Manα1,2ManαOMe] | – | 0.62 | Km [1, 6]: 28 mM; Km [1, 7]: 28 mM
5 | CO[C@H]1O[C@H](C)[C@@H](O)[C@H](O)[C@@H]1O [Compound 4, Methyl 6-Deoxy-α-D-mannopyranoside] | poor substrates | 0.06 | –
6 | CO[C@H]1O[C@H](CN=[N+]=[N-])[C@@H](O)[C@H](O)[C@@H]1O [Compound 5, 6-Azido-6-deoxy-ManαOMe] | poor substrates | 0.02 | –
7 | CO[C@H]1O[C@H](CN)[C@@H](O)[C@H](O)[C@@H]1O [Compound 6, 6-Amino-6-deoxy-ManαOMe] | poor substrates | 0.07 | –
8 | COC(=O)C(NC(=O)C(N)C(C)OC1OC(CO)C(O)C(O)C1O)C(C)C (stereo not drawn) [Compound 8, Thr(α-Man)-Val-OMe] | good substrates | 0.68 | –
9 | CC(NC(=O)CNC(=O)C(NC(=O)C(NC(=O)OCc1ccccc1)C(C)OC1OC(CO)C(O)C(O)C1O)C(C)C)C(N)=O (stereo not drawn) [Compound 9, Cbz-Thr(α-Man)-Val-Gly-Ala-NH2] (Cbz-T(X1)VGA-NH2; configuration not given here) | good substrates | 0.55 | –
10 | COC(=O)C(NC(=O)C(NC(=O)OCc1ccccc1)C(C)OC1OC(CO)C(O)C(O)C1OC1OC(CO)C(O)C(O)C1O)C(C)C (stereo not shown) [Compound 11, Cbz-Thr(αManα1,2Man)-Val-OMe] | – | 0.17 | Km [1, 7]: 26 mM
11 | CO[C@H]1O[C@H](COS(=O)(=O)c2ccc(C)cc2)[C@@H](O)[C@H](O)[C@@H]1O [Compound 12, 6-Tosyl-ManαOMe] | – | 0.00 | –
12 | O=[N+]([O-])c1ccc(O[C@H]2O[C@H](CO)[C@@H](O)[C@H](O)[C@@H]2O)cc1 [Compound 13, p-nitrophenyl α-mannopyranoside, reference compound] | not substrates | 0.00 | –
13 | O=C[C@@H](O)[C@H](O)[C@H](O)[C@H](O)CO [D-altrose, reference compound] | not substrates | – | –
14 | O=C[C@@H](O)[C@H](O)[C@H](O)CO [D-arabinose, reference compound] | not substrates | – | –
15 | O=C[C@@H](O)[C@H](O)[C@@H](O)[C@H](O)CO [D-idose, reference compound] | not substrates | – | –
16 | O=C[C@@H](O)[C@@H](O)[C@H](O)CO [D-lyxose, reference compound] | not substrates | – | –
17 | O=C[C@@H](O)[C@@H](O)[C@@H](O)[C@H](O)CO [D-talose, reference compound] | not substrates | – | –
18 | Boc-Try-Thr(α-Man)-Val-OMe [Compound 10] | – | 0.35 | Km [1, 6]: 0.7 mM; Km [1, 7]: 0.7 mM; Km, times less than that of Compound 7 ([1]; ratio of Km values): 10 times; Km, times smaller than that of ManαOMe (Compound 1) ([1]; ratio of Km values): 80 times
19 | Cbz-Thr(α-Man)-Val-OMe [Compound 7] | comparable with ManαOMe as an acceptor | 0.71 | Km [1, 7]: 7.8 mM
20 | B1 | – | – | specific activity [3]: about 1 unit/mg; remaining activity ([4]; 10-percent DMF-buffer solution): about 80%; remaining activity ([4]; 10 percent acetonitrile-buffer solution): about 50%; loss of activity ([4]; DMF or acetonitrile increased to 20 percent): 95%; tolerated acetone concentration ([4]; acetone-buffer solution): ≤ 20%; tolerated methanol concentration ([4]; methanol-buffer solution): up to 30%; activity retained [5]: more than 90%
